Results reported in ChEMBL document CHEMBL1128696, “Hydroxylated aromatic inhibitors of HIV-1 integrase” (J Med Chem, 1995).

biological target: Human immunodeficiency virus type 1 integrase (Human immunodeficiency virus 1, UniProt Q7ZJM1); test: In vitro inhibitory activity against HIV-1 integrase.
Sequence (Q7ZJM1 whole entry): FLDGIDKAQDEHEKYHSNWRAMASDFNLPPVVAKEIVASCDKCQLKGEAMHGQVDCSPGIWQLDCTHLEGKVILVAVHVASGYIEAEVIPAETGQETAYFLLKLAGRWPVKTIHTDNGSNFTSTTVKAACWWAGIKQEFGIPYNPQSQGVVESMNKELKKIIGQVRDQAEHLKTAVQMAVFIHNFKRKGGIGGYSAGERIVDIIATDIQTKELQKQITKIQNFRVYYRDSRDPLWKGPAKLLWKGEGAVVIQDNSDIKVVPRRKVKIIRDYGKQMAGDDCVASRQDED

Compound	IC50 [µM]
O=C(CCc1ccc(O)c(O)c1)OCCc1ccccc1	11
O=C(NCc1ccccc1)c1cc2cc(O)c(O)cc2cn1	> 100
O=C(Cc1ccccc1)NCCc1ccc(O)c(O)c1	> 100
N=c1oc2c(O)c(O)ccc2cc1C(N)=O	93
O=C(/C=C/c1ccc(O)c(O)c1)OCCc1ccc2ccccc2c1	44
O=C(/C=C/c1cc(O)c(O)c(O)c1)OCCc1ccccc1	2
O=C(CCc1ccc(O)c(O)c1)NCCc1cc(O)c(O)c(O)c1	4
COc1ccc(/C=C/C(=O)OCCc2ccccc2)cc1OC	> 100
O=C(OCCc1ccccc1)c1ccc2cc(O)c(O)cc2c1	68
O=C(/C=C/c1ccc(O)c(O)c1O)OCCc1ccccc1	2
COC(=O)/C=C/c1ccc(O)c(O)c1 [METHYLCAFFEATE]	> 100
COc1cc(/C=C/C(=O)OCCc2ccccc2)ccc1O	> 100
O=C(/C=C/c1cc(O)ccc1O)OCCc1ccccc1	> 100
O=C(/C=C/c1ccc(O)c(O)c1)OCCc1cccc2ccccc12	15
COC(=O)c1cc2cc(O)c(O)cc2cn1	> 100
COc1ccc(/C=C/C(=O)OCCc2ccccc2)cc1O	60

Compound	IC50 [µM]
O=C(/C=C/c1cc(O)c(O)cc1O)OCCc1ccccc1	55
N=c1oc2cc(O)c(O)cc2cc1C(N)=O	48
O=C(/C=C/c1ccc(O)c(O)c1)OCc1ccccc1 [BENZYL CAFFEATE]	9
CCOC(=O)/C=C/c1ccc(O)c(O)c1 [ETHYL CAFFEATE]	> 100
O=C(OCCc1ccccc1)c1ccc2c(O)c(O)ccc2c1	18
O=C(NCCc1ccccc1)c1cc2ccc(O)c(O)c2cn1	40
COC(=O)c1ccc2c(O)c(O)ccc2c1	8
O=C(CCc1ccc(O)c(O)c1)NCCc1ccc(O)c(O)c1	3
COC(=O)c1cc2ccc(O)c(O)c2cn1	14
O=C(CCc1ccccc1)NCCc1ccc(O)c(O)c1	> 100
N#C/C(=C\c1ccc(O)c(O)c1)C(N)=O	> 100
O=C(/C=C/c1ccc(F)c(F)c1)OCCc1ccccc1	> 100
O=C(CCc1ccc(O)c(O)c1)NCCc1ccccc1	> 100
O=C(/C=C/c1ccc(O)c(O)c1)OCCc1ccccc1 [CAFFEIC ACID PHENETHYL ESTER]	7
O=C(/C=C/c1ccc(O)c(O)c1)OCCCc1ccccc1	8
O=C(NCc1ccccc1)c1cc2ccc(O)c(O)c2cn1	75
